These compounds were tested against T1, recombinant IL4I1 (Homo sapiens, UniProt Q96RQ9) (assay: IL4I1 Enzymatic Assay (Amplex Red/HRP coupled detection of H2O2, fluorescence)). Details: 1 nM recombinant IL4I1; four-hour pre-incubation with compound; 1 mM each Phe, Tyr, Trp; ten-point titration.
T1 construct: purchased R&D Systems 5684-AO-020
T1 sequence (Q96RQ9 22-567): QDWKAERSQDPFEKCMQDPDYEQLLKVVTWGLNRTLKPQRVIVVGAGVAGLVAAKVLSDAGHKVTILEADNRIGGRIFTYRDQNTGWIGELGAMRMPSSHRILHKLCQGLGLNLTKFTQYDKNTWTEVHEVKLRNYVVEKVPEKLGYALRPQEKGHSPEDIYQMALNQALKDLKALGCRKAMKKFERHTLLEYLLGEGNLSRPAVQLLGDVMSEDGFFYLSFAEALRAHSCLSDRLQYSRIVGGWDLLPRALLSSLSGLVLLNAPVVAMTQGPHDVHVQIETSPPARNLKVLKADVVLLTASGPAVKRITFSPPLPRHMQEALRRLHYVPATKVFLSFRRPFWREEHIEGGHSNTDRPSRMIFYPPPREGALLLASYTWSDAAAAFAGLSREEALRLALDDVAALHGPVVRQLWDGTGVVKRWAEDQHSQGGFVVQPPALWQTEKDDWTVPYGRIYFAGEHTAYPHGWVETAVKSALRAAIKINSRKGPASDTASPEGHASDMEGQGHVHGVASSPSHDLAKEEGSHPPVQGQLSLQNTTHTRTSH
Format: biochemical
In short: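 H2O2 output was coupled to resorufin fluorescence (ex 544/em 590) via 0.05 mM Amplex Red and 1 U/mL HRP. Substrate: Phe, Tyr, Trp at 1 mM each; enzyme 1 nM, 4 h compound pre-incubation, 120 min reaction, pH 7.0 Hepes. EC50 by nonlinear four-parameter regression, 1:3 ten-point titration.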

SMILES	EC50 [nM]
O=C(NCc1nnc(-c2ccccc2)s1)c1cn(C23CC(F)(C2)C3)nn1 [Example 173, 1-(3-fluorobicyclo[1.1.1]pentan-1-yl)-N-((5-phenyl-1,3,4-thiadiazol-2-yl)methyl)-1H-1,2,3-triazole-4-carboxamide]	334
CC1(n2cc(C(=O)NCc3nnc(-c4ccccc4)s3)nn2)CS(=O)(=O)C1 [Example 178, 1-(3-methyl-1,1-dioxidothietan-3-yl)-N-((5-phenyl-1,3,4-thiadiazol-2-yl)methyl)-1H-1,2,3-triazole-4-carboxamide]	267
O=C(NCc1nnc(-c2ccccc2)s1)c1cn(C[C@H]2CCCO2)nn1 [Example 179, (R)-N-((5-phenyl-1,3,4-thiadiazol-2-yl)methyl)-1-((tetrahydrofuran-2-yl)methyl)-1H-1,2,3-triazole-4-carboxamide]	238
O=C(NCc1nnc(-c2ccccc2)s1)c1cn(CC(O)C2CC2)nn1 (centres unmarked) [Example 181, 1-(2-cyclopropyl-2-hydroxyethyl)-N-((5-phenyl-1,3,4-thiadiazol-2-yl)methyl)-1H-1,2,3-triazole-4-carboxamide]	239
O=C(NCc1nnc(-c2ccccc2)s1)c1cn([C@@H]2CC(=O)N(C3CC3)C2)nn1 [Example 182, (R)-1-(1-cyclopropyl-5-oxopyrrolidin-3-yl)-N-((5-phenyl-1,3,4-thiadiazol-2-yl)methyl)-1H-1,2,3-triazole-4-carboxamide]	610
CN1CC(n2cc(C(=O)NCc3nnc(-c4ccccc4)s3)nn2)CC1=O (centres unmarked) [Example 183, 1-(1-methyl-5-oxopyrrolidin-3-yl)-N-((5-phenyl-1,3,4-thiadiazol-2-yl)methyl)-1H-1,2,3-triazole-4-carboxamide]	139
C[C@H](O)[C@H](CO)n1cc(C(=O)NCc2nnc(-c3ccccc3)s2)nn1 [Example 186, 1-((2S,3S)-1,3-dihydroxybutan-2-yl)-N-((5-phenyl-1,3,4-thiadiazol-2-yl)methyl)-1H-1,2,3-triazole-4-carboxamide]	274
C[C@@H](O)[C@H](CO)n1cc(C(=O)NCc2nnc(-c3ccccc3)s2)nn1 [Example 187, 1-((2S,3R)-1,3-dihydroxybutan-2-yl)-N-((5-phenyl-1,3,4-thiadiazol-2-yl)methyl)-1H-1,2,3-triazole-4-carboxamide]	196
O=C(NCc1nnc(-c2ccccc2)s1)c1cn(C2CS(=O)(=O)CC2O)nn1 (centres unmarked) [Example 188, 1-(4-hydroxy-1,1-dioxidotetrahydrothiophen-3-yl)-N-((5-phenyl-1,3,4-thiadiazol-2-yl)methyl)-1H-1,2,3-triazole-4-carboxamide]	155
O=C(NCc1nnc(-c2ccccc2)s1)c1cn([C@@H]2C[C@@H](O)[C@@H](O)C2)nn1 [Example 190, 1-((1s,3R,4S)-3,4-dihydroxycyclopentyl)-N-((5-phenyl-1,3,4-thiadiazol-2-yl)methyl)-1H-1,2,3-triazole-4-carboxamide]	499
O=C1COC(Cn2cc(C(=O)NCc3nnc(-c4ccccc4)s3)nn2)CN1 (centres unmarked) [Example 192, 1-((5-oxomorpholin-2-yl)methyl)-N-((5-phenyl-1,3,4-thiadiazol-2-yl)methyl)-1H-1,2,3-triazole-4-carboxamide]	264
CN(C)C(=O)CCn1cc(C(=O)NCc2nnc(-c3ccccc3)s2)nn1 [Example 193, 1-(3-(dimethylamino)-3-oxopropyl)-N-((5-phenyl-1,3,4-thiadiazol-2-yl)methyl)-1H-1,2,3-triazole-4-carboxamide]	958
CCC(CO)(CO)n1cc(C(=O)NCc2nnc(-c3ccccc3)s2)nn1 [Example 195, 1-(1-hydroxy-2-(hydroxymethyl)butan-2-yl)-N-((5-phenyl-1,3,4-thiadiazol-2-yl)methyl)-1H-1,2,3-triazole-4-carboxamide]	532
O=C(NCc1nnc(-c2ccccc2)s1)c1cn([C@H]2COC[C@@H]2F)nn1 [Example 199, 1-((3S,4R)-4-fluorotetrahydrofuran-3-yl)-N-((5-phenyl-1,3,4-thiadiazol-2-yl)methyl)-1H-1,2,3-triazole-4-carboxamide]	140
O=C(NCc1nnc(-c2ccccc2)s1)c1cn(C2C3COCC32)nn1 (centres unmarked) [Example 200, 1-(3-oxabicyclo[3.1.0]hexan-6-yl)-N-((5-phenyl-1,3,4-thiadiazol-2-yl)methyl)-1H-1,2,3-triazole-4-carboxamide]	537
CC(C)(O)Cn1cc(C(=O)NCc2nnc(-c3ccccc3)s2)nn1 [Example 201, 1-(2-hydroxy-2-methylpropyl)-N-((5-phenyl-1,3,4-thiadiazol-2-yl)methyl)-1H-1,2,3-triazole-4-carboxamide]	226

Stronger by EC50, values ahead:

EC50 [nM]	SMILES
114	O=C(NCc1nnc(-c2ccccc2)s1)c1cn(C2CCCOC2)nn1 (centres unmarked) [Example 177, N-((5-phenyl-1,3,4-thiadiazol-2-yl)methyl)-1-(tetrahydro-2H-pyran-3-yl)-1H-1,2,3-triazole-4-carboxamide]
107	O=C(NCc1nnc(-c2ccccc2)s1)c1cn([C@H]2COC[C@@H]2O)nn1 [Example 189, 1-((3S,4R)-4-hydroxytetrahydrofuran-3-yl)-N-((5-phenyl-1,3,4-thiadiazol-2-yl)methyl)-1H-1,2,3-triazole-4-carboxamide]
80	O=C(NCc1nnc(-c2ccccc2)s1)c1cn(C2CC(CO)(CO)C2)nn1 [Example 175, 1-(3,3-bis(hydroxymethyl)cyclobutyl)-N-((5-phenyl-1,3,4-thiadiazol-2-yl)methyl)-1H-1,2,3-triazole-4-carboxamide]
77	O=C(NCc1nnc(-c2ccccc2)s1)c1cn([C@H]2CCOC[C@@H]2O)nn1 [Example 184, 1-((3R,4S)-3-hydroxytetrahydro-2H-pyran-4-yl)-N-((5-phenyl-1,3,4-thiadiazol-2-yl)methyl)-1H-1,2,3-triazole-4-carboxamide]
75	C[C@@H](O)Cn1cc(C(=O)NCc2nnc(-c3ccccc3)s2)nn1 [Example 180, (R)-1-(2-hydroxypropyl)-N-((5-phenyl-1,3,4-thiadiazol-2-yl)methyl)-1H-1,2,3-triazole-4-carboxamide]
49	O=C(NCc1nnc(-c2ccccc2)s1)c1cn(C23CC(C2)C3)nn1 [Example 172, 1-(bicyclo[1.1.1]pentan-1-yl)-N-((5-phenyl-1,3,4-thiadiazol-2-yl)methyl)-1H-1,2,3-triazole-4-carboxamide]
34	C[C@H](CCF)n1cc(C(=O)NCc2nnc(-c3ccccc3)s2)nn1 [Example 170, (R)-1-(4-fluorobutan-2-yl)-N-((5-phenyl-1,3,4-thiadiazol-2-yl)methyl)-1H-1,2,3-triazole-4-carboxamide]
28	N#CC1(n2cc(C(=O)NCc3nnc(-c4ccccc4)s3)nn2)CCOC1 (centres unmarked) [Example 197, 1-(3-cyanotetrahydrofuran-3-yl)-N-((5-phenyl-1,3,4-thiadiazol-2-yl)methyl)-1H-1,2,3-triazole-4-carboxamide]
25	O=C(NCc1nnc(-c2ccccc2)s1)c1cn(CC2(CO)COC2)nn1 [Example 185, 1-((3-(hydroxymethyl)oxetan-3-yl)methyl)-N-((5-phenyl-1,3,4-thiadiazol-2-yl)methyl)-1H-1,2,3-triazole-4-carboxamide]
17	O=C(NCc1nnc(-c2ccccc2)s1)c1cn([C@@H]2COC[C@@H]2F)nn1 [Example 198, 1-((3R,4R)-4-fluorotetrahydrofuran-3-yl)-N-((5-phenyl-1,3,4-thiadiazol-2-yl)methyl)-1H-1,2,3-triazole-4-carboxamide]
16	COC1CC(n2cc(C(=O)NCc3nnc(-c4ccccc4)s3)nn2)C1 (centres unmarked) [Example 174, 1-(3-methoxycyclobutyl)-N-((5-phenyl-1,3,4-thiadiazol-2-yl)methyl)-1H-1,2,3-triazole-4-carboxamide]
12	O=C(NCc1nnc(-c2ccccc2)s1)c1cn(CC(O)CO)nn1 (centres unmarked) [Example 191, 1-(2,3-dihydroxypropyl)-N-((5-phenyl-1,3,4-thiadiazol-2-yl)methyl)-1H-1,2,3-triazole-4-carboxamide]
11	O=C(NCc1nnc(-c2ccccc2)s1)c1cn(C2CCC(O)C2)nn1 (centres unmarked) [Example 196, 1-(3-hydroxycyclopentyl)-N-((5-phenyl-1,3,4-thiadiazol-2-yl)methyl)-1H-1,2,3-triazole-4-carboxamide]
10	O=C(NCc1nnc(-c2ccccc2)s1)c1cn(CCC(F)F)nn1 [Example 171, 1-(3,3-difluoropropyl)-N-((5-phenyl-1,3,4-thiadiazol-2-yl)methyl)-1H-1,2,3-triazole-4-carboxamide]
7	O=C(NCc1nnc(-c2ccccc2)s1)c1cn(CC(F)(F)CO)nn1 [Example 176, 1-(2,2-difluoro-3-hydroxypropyl)-N-((5-phenyl-1,3,4-thiadiazol-2-yl)methyl)-1H-1,2,3-triazole-4-carboxamide]
7	O=C(NCc1nnc(-c2ccccc2)s1)c1cn(CCCO)nn1 [Example 194, 1-(3-hydroxypropyl)-N-((5-phenyl-1,3,4-thiadiazol-2-yl)methyl)-1H-1,2,3-triazole-4-carboxamide]

From patent US20240336608A1, “IL4I1 INHIBITORS AND METHODS OF USE” (Merck Sharp & Dohme LLC, priority 2023, published 2024)
